Reference: publication PMC8765310, “Metabolism, Excretion, and Mass Balance of [^14C]-Rezafungin in Animals and Humans” (Antimicrobial Agents and Chemotherapy, 2022)
*1 amine or outer side, *2 acyl side, *3 side chain or, on linkers, in order; H or OH if unused. Where a SMILES comes first, the peptide text is derived from it. Bridges are numbered along the chain shown (N, C = ends). [ ]: non-standard residue; d: D form. The star is where a group is joined. Orn(4R-OH,5R-OCH2CH2NMe3+) = C[N+](C)(C)CCO[C@@H](N[*:3])[C@H](O)C[C@H](N[*:1])C(=O)[*:2]; pTerphenylCO(4''-OnC5H11) = CCCCCOc1ccc(-c2ccc(-c3ccc(C(=O)*)cc3)cc2)cc1; hTyr(3S-OH,4S-OH) = N[C@H](C(=O)O)[C@H](O)[C@@H](O)c1ccc(O)cc1; Pro(3S-OH,4S-Me) = C[C@H]1CN[C@H](C(=O)O)[C@H]1O; Hyp = O=C(O)[C@@H]1C[C@@H](O)CN1

Columns and labels:
[1] = Monkey excretion/mass balance of [14C]-rezafungin; type: in vivo, cynomolgus monkeys
Protocol: (§1) (ii) Monkey study design. The study used 3 male cynomolgus monkeys, each administered a single 10 mg/kg IV dose of [^14C]-rezafungin (with a target radioactivity of 100 μCi/kg of [^14C]-rezafungin) by infusion into a saphenous vein over 20 min. Whole blood and plasma samples were collected at each of the following time points: predose, 0.5, 2, 4, 8, 24, 48, 96 120, 144, 168, 240, 480, 720, and 1440 h postdose. Urine, feces, and cage washings were collected at predose (urine/feces only) and daily 24-h collections for 30 days.
(§2) (iii) Sample analysis. Whole blood and fecal homogenates were combusted prior to analysis by liquid scintillation counting (LSC). Blood, plasma, bile, urine, cage rinse/wash, and fecal homogenate samples were mixed with scintillation fluid and analyzed for radioactivity by LSC. Rat carcasses were dissolved in potassium hydroxide, and the resulting digests were mixed with scintillation fluid and analyzed for radioactivity by LSC.

[2] = Monkey blood and plasma radioactivity pharmacokinetics; type: in vivo, cynomolgus monkeys
Protocol: as §1, §2

[3] = Clinical safety in the human mass balance study; type: in vivo; conditions: single IV 400-mg infusion
Protocol: (i) Study design. This was an open-label, phase I, single-dose mass balance study. The study was conducted at Labcorp (formerly, Covance, Inc.; Madison, WI) in accordance with good clinical practice, including ICH guidelines and applicable regulatory requirements, and in general conformity with the Declaration of Helsinki. No animal work was conducted by Labcorp. All pertinent study documents were reviewed by the Institutional Review Board (IRB) prior to study initiation. Following IRB approval and collection of written informed consent, all the subjects underwent an initial screening assessment within 28 days of the first dose. Safety was assessed by vital signs, physical examinations, AE assessments, laboratory tests (chemistry, hematology, and urinalysis), and a 12-lead electrocardiogram.

[4] = Rat metabolite profiling (LC-MS with radioactivity detection); type: in vivo, Sprague-Dawley rats; conditions: pooled samples, IV 15 mg/kg
Protocol: (§3) (i) Rat study design. The study used 12 male Sprague-Dawley rats, each administered a bolus IV injection into the tail vein over approximately 3–4 min of 15 mg/kg of rezafungin (with a target radioactivity of 200 μCi/kg of [^14C]-rezafungin). Three of the rats were bile duct cannulated. Whole blood/plasma, urine, feces/bile, and cage washings were collected at periodic intervals from noncannulated rats until euthanization at 336 h postdose and from bile duct cannulated rats until euthanization at 120 h postdose as that was the duration that the patency of bile duct cannulae could be maintained. Carcasses were collected at the time of euthanization. All samples were analyzed for drug-derived radioactivity by liquid scintillation counting.
(iv) Metabolite profiling. The metabolite identification and urine profiling were achieved using pooled samples by equal percent weight of samples (urine, bile, feces) or by equal volume (50 μl) aliquots of each plasma sample across all time points/intervals. The urine, plasma, bile, and fecal samples were analyzed using liquid chromatography tandem mass spectrometry (LC-MS) coupled with a radioactivity flow-through detector for metabolite profiling and identification. Tandem MS experiments were performed, and the structures of the metabolites were proposed based on their MS/MS spectra. The proposed structures were confirmed by comparison of the retention times and product ion spectra with the authentic reference standards when possible.

[5] = Rat blood and plasma radioactivity pharmacokinetics; type: in vivo, Sprague-Dawley rats; conditions: IV [14C]-rezafungin 15 mg/kg, mean plasma concentrations
Protocol: as §3, §2

[6] = cited from earlier work
Text: All three of the previously approved echinocandins (caspofungin, micafungin, and anidulafungin) are believed to undergo spontaneous chemical (non-enzymatic) degradation to a ring-opened peptide as their primary clearance mechanism ([18]). […] While protein binding is generally considered a factor in evaluation of half-life, rezafungin and the ...

[7] = monkeys, 10 mg/kg IV, through 720 h postdose

CCCCCOc1ccc(-c2ccc(-c3ccc(C(=O)N[C@H]4C[C@@H](O)[C@@H](OCC[N+](C)(C)C)NC(=O)[C@@H]5[C@@H](O)[C@@H](C)CN5C(=O)[C@H]([C@@H](C)O)NC(=O)[C@H]([C@H](O)[C@@H](O)c5ccc(O)cc5)NC(=O)[C@@H]5C[C@@H](O)CN5C(=O)[C@H]([C@@H](C)O)NC4=O)cc3)cc2)cc1 [rezafungin] ({pTerphenylCO(4''-OnC5H11)}-[Orn(4R-OH,5R-OCH2CH2NMe3+)]T[Hyp][hTyr(3S-OH,4S-OH)]T[Pro(3S-OH,4S-Me)]; lactam 1-C)
Average total recovery of radioactivity ([1]; 3 male monkeys, single 10 mg/kg IV 20-min infusion (100 μCi/kg), at 168 h (1 week) postdose, LSC): 47.02 % of the dose | Radioactivity recovered in feces ([1]; monkeys, 10 mg/kg IV, at 720 h postdose): 60 % of the administered dose | Mean total recovery of radioactivity ([1]; monkeys, 10 mg/kg IV, through 360 h postdose): 65 % of the dose | Radioactivity recovered in cage residue [1, 7]: 4.3 % of the administered dose | Radioactivity recovered in urine [1, 7]: 9.7 % of the administered dose | t1/2 of plasma total radioactivity ([2]; monkey, IV [14C]-rezafungin 10 mg/kg, mean plasma concentrations): 170 h | Ratio of blood-to-plasma AUC (radioactivity) ([2]; monkeys, 10 mg/kg IV): approximately 1 | Time of maximum blood and plasma radioactivity concentrations ([2]; monkeys, single IV 20-min infusion 10 mg/kg, first postdose sample): 0.5 h | Treatment-emergent adverse events (TEAEs) reported, total number ([3]; 9 healthy male subjects): 13 | Deaths, SAEs ([3]; 9 subjects): no deaths or other SAEs | Laboratory assessments, vital signs, ECGs, physical examinations ([3]; 9 subjects): no clinically relevant treatment-related findings | Severe TEAEs ([3]; 9 subjects): no severe TEAEs | Subjects with diarrhea (most common TEAE) ([3]; of 9 subjects): two | Radioactive component in feces and bile ([4]; rat feces and bile): predominant radioactive component | Share of total plasma radioactivity exposure ([4]; rat plasma, LC-MS with radio-detection): 56% | t1/2 of plasma total radioactivity [5]: 54 h | Protein binding [6]: 97.4%
